Data reported in paper PMC6757289, “Design and Characterization of SGK3-PROTAC1, an Isoform Specific SGK3 Kinase PROTAC Degrader” (ACS Chemical Biology, 2019).
Like-named read-outs stand apart in the source and are kept apart here.

How the values were obtained:
Assay in all cases: kinase profiling panel
Format in all cases: biochemical
Settings in all cases: read-out: % Activity Remaining
[1] = target: T1, DYRK2 (Homo sapiens, UniProt Q92630)
T1 sequence (Q92630 1-601): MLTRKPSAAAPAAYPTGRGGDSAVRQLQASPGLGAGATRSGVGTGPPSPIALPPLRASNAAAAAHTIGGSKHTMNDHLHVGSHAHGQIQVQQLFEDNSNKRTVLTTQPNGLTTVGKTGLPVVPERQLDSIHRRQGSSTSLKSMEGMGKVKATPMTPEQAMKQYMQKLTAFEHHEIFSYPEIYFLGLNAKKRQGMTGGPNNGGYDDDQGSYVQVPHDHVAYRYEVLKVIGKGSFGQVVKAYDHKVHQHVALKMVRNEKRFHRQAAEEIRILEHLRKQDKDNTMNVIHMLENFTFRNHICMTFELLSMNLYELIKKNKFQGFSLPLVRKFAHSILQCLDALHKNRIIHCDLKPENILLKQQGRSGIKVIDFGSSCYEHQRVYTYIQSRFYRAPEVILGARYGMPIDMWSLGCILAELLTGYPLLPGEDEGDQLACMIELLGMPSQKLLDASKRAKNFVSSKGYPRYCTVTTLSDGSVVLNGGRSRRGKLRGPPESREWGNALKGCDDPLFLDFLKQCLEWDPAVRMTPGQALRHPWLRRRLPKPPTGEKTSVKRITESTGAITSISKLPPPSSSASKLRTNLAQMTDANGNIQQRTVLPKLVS
Description: (§1) Protein kinase profiling against a Dundee panel of 140 protein kinases was undertaken at the International Centre for Protein Kinase Profiling. The result for each kinase was presented as a mean kinase activity of the reaction taken in triplicate relative to a control sample treated with DMSO. Assay conditions and abbreviations are available at http://www.kinase-screen.mrc.ac.uk.

[2] = target: EPH-A4 (Homo sapiens, UniProt P54764)
Description: as §1

[3] = target: T2, GCK (Homo sapiens, UniProt Q12851)
T2 sequence (Q12851 1-820): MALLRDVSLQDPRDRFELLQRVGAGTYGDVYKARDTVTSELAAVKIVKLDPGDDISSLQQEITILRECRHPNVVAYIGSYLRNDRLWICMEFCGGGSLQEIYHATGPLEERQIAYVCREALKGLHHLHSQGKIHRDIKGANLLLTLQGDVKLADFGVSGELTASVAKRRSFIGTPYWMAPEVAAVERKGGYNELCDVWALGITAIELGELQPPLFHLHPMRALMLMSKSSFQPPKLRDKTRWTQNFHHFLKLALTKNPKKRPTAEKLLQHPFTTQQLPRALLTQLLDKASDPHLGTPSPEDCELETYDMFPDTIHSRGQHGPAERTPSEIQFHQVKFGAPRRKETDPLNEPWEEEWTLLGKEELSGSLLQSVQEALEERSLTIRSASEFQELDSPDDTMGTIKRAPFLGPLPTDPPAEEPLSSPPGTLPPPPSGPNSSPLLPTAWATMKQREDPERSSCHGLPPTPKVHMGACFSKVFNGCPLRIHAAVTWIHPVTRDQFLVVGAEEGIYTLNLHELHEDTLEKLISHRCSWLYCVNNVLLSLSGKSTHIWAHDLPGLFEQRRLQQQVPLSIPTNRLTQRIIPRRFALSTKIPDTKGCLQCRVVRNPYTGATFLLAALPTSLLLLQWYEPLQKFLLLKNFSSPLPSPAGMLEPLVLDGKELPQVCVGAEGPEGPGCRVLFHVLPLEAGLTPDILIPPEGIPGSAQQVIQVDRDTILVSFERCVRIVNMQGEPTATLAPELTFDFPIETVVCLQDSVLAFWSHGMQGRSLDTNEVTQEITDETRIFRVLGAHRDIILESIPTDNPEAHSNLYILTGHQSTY
Description: as §1

[4] = target: IRR (Homo sapiens, UniProt P14616)
Description: as §1

[5] = target: MAPKAP-K2 (Homo sapiens, UniProt P49137)
Description: as §1

[6] = target: PAK4 (Homo sapiens, UniProt O96013)
Description: as §1

[7] = target: PKA (Homo sapiens, UniProt P17612)
Description: as §1

[8] = target: RSK2 (Homo sapiens, UniProt P51812)
Description: as §1

[9] = target: S6K1 (Homo sapiens, UniProt P23443)
Description: as §1

[10] = target: T3, SGK1 (Homo sapiens, UniProt O00141)
T3 sequence (O00141 1-431): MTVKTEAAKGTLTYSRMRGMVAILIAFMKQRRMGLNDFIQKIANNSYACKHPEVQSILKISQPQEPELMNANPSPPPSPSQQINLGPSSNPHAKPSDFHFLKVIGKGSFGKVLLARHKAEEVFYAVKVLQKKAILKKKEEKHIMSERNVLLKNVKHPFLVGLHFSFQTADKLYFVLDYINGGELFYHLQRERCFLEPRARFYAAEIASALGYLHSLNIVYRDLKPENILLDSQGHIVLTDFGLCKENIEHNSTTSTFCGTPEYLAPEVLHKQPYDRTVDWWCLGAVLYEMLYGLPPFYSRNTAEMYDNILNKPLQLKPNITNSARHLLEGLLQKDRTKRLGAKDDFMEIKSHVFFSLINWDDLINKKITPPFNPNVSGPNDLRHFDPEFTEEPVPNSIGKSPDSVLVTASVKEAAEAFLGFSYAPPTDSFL
Description: as §1

[11] = target: SIK3 (Homo sapiens, UniProt Q9Y2K2)
Description: as §1

[12] = target: T4, TAK1 (Homo sapiens, UniProt O43318)
T4 sequence (O43318 1-303 limits assumed): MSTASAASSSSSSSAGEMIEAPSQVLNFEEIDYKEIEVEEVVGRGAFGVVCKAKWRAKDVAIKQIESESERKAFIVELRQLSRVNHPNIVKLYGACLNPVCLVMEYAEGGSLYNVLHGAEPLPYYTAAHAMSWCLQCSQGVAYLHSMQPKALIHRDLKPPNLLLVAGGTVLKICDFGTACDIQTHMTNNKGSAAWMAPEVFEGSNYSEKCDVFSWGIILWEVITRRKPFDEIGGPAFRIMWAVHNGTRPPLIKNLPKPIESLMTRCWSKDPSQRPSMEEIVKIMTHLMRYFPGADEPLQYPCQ
Description: as §1

[13] = target: TIE2 (Homo sapiens, UniProt Q02763)
Description: as §1

[14] = target: p38 beta MAPK (Homo sapiens, UniProt Q15759)
Description: as §1

Sequence of RSK2 (P51812 whole entry): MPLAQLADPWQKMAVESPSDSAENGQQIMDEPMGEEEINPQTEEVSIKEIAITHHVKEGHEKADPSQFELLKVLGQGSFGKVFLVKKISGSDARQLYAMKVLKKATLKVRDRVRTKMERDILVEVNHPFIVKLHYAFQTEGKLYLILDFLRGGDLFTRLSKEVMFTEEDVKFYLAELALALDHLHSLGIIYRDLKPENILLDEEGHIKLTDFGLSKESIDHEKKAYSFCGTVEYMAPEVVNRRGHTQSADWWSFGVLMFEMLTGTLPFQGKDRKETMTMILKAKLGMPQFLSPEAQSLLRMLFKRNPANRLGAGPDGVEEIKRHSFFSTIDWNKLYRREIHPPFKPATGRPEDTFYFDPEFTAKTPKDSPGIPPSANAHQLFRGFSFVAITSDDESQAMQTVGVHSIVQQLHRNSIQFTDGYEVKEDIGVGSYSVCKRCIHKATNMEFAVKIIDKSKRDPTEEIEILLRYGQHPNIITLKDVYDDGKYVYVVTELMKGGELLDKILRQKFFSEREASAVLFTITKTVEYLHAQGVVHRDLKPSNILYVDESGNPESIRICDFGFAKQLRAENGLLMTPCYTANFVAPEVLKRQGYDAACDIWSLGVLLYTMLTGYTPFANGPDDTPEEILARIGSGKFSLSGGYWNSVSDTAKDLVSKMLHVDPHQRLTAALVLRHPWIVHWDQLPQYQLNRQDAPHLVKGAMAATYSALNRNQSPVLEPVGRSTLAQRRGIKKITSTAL
Sequence of TIE2 (Q02763 23-1124): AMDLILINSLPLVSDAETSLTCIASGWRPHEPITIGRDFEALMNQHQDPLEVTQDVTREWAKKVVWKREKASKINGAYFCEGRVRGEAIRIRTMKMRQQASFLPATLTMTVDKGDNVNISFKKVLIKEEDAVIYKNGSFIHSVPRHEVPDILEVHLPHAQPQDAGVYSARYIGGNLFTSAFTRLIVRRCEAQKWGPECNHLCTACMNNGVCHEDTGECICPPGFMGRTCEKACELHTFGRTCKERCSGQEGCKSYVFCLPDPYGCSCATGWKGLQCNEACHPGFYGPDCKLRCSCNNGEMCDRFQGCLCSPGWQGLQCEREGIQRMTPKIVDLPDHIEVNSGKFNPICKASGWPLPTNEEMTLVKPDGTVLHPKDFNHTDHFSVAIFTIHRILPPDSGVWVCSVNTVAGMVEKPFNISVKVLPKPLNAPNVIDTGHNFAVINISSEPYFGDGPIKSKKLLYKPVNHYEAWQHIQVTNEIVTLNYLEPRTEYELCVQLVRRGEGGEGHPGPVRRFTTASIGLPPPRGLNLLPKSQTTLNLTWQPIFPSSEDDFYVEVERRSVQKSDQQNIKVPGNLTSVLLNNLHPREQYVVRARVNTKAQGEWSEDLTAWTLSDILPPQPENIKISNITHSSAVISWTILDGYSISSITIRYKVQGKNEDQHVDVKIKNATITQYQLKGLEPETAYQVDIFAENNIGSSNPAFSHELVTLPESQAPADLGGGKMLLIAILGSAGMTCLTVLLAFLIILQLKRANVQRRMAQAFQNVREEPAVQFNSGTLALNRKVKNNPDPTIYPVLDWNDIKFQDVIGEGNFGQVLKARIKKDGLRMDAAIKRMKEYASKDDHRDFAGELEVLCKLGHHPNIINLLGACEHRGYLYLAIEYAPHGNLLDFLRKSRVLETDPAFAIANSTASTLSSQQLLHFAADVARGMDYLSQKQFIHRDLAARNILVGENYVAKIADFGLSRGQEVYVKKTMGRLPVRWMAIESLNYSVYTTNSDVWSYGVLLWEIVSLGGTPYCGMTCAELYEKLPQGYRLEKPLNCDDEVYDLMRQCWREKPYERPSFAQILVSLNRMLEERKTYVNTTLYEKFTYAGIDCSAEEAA
Sequence of S6K1 (P23443 whole entry): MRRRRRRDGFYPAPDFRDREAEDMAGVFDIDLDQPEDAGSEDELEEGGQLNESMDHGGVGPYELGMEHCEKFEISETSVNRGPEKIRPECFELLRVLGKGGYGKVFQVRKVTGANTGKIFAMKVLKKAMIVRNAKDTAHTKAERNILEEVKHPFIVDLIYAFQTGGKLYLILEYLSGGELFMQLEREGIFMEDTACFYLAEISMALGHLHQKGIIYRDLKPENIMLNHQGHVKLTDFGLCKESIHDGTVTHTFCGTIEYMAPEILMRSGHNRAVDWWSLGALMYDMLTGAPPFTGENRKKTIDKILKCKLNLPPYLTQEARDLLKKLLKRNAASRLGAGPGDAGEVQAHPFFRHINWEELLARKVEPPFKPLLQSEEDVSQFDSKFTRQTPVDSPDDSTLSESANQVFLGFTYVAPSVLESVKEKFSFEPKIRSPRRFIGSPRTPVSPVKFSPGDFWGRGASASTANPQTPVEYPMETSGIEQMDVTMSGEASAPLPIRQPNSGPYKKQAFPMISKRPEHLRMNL
Sequence of EPH-A4 (P54764 20-986): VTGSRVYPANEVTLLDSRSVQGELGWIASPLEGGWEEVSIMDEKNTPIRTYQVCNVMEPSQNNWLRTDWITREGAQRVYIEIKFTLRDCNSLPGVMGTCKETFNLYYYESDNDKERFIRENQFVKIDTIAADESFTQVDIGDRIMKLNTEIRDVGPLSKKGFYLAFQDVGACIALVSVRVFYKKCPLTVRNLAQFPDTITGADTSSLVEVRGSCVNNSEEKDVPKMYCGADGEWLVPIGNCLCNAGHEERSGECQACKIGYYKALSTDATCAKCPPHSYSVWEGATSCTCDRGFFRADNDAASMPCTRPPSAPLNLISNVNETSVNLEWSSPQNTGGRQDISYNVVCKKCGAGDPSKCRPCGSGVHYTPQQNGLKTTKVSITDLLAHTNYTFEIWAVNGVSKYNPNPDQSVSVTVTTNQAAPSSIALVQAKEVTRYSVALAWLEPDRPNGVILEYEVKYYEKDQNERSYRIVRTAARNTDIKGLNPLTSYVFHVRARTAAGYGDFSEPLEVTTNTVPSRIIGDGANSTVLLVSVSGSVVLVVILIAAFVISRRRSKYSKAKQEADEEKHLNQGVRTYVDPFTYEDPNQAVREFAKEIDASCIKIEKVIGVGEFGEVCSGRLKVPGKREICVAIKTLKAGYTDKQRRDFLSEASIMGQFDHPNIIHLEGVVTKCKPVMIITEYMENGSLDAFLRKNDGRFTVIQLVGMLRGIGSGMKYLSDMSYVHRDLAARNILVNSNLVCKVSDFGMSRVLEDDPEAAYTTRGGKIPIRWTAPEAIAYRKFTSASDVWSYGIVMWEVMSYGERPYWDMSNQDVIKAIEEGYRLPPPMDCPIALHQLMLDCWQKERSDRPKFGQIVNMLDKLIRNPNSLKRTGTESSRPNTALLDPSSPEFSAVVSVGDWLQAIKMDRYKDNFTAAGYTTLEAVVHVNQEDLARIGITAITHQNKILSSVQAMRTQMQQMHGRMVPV
Sequence of IRR (P14616 27-1297): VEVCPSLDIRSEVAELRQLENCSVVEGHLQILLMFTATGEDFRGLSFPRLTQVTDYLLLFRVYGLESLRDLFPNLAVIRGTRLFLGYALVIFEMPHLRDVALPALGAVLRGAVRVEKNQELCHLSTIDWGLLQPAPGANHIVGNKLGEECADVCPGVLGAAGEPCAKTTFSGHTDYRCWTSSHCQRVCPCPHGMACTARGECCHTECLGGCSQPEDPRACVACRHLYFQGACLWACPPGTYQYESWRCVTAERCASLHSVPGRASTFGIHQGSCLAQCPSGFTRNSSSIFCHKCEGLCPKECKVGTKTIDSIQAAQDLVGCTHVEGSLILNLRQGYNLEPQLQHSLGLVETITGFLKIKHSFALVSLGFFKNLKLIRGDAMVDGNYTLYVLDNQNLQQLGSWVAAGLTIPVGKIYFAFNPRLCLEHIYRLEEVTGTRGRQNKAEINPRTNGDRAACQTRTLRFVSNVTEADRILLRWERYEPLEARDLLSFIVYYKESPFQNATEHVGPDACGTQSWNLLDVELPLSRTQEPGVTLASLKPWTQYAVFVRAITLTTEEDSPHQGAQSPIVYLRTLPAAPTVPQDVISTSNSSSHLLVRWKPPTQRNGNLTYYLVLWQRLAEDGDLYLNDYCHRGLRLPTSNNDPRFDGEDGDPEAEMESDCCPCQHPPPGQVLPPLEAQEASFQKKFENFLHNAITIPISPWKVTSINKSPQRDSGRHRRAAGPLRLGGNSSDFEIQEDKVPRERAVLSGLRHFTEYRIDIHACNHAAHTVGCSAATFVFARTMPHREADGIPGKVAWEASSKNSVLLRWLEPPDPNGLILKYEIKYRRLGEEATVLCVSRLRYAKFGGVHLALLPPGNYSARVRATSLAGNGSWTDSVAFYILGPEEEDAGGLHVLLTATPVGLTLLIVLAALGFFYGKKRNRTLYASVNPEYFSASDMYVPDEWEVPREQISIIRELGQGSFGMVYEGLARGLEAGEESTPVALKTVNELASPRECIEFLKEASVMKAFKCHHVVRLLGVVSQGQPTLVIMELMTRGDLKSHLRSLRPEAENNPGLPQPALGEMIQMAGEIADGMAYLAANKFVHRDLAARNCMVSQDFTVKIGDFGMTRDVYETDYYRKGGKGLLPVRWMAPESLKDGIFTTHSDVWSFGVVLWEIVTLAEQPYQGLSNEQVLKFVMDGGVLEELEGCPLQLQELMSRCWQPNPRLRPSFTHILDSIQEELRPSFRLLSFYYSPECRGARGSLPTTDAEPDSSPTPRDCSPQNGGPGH
Sequence of p38 beta MAPK (Q15759 whole entry): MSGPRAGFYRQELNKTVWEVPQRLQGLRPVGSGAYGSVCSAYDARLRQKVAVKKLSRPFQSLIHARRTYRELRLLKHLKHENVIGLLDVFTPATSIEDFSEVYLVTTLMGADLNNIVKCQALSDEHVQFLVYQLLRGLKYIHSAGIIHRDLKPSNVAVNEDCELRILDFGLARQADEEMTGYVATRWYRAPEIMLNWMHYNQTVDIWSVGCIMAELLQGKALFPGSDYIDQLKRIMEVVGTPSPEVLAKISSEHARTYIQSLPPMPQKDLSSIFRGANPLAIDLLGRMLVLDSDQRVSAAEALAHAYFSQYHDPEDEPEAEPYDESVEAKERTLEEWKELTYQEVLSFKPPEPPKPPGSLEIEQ

| Compound | remaining activity at 1 µM ([1]; 1 µM) | remaining activity at 1 µM ([2]; 1 µM) | remaining activity at 1 µM ([3]; 1 µM) | remaining activity at 1 µM ([4]; 1 µM) | remaining activity at 1 µM ([5]; 1 µM) | remaining activity at 1 µM ([6]; 1 µM) | remaining activity at 1 µM ([7]; 1 µM) | remaining activity at 1 µM ([8]; 1 µM) | remaining activity at 1 µM ([9]; 1 µM) | remaining activity at 1 µM ([10]; 1 µM) | remaining activity at 1 µM ([11]; 1 µM) | remaining activity at 1 µM ([12]; 1 µM) | remaining activity at 1 µM ([13]; 1 µM) | remaining activity at 1 µM ([14]; 1 µM) | remaining activity at 1 µM [1] | remaining activity at 1 µM [2] | remaining activity at 1 µM [3] | remaining activity at 1 µM [4] | remaining activity at 1 µM [5] | remaining activity at 1 µM [6] | further results |
| --- | --- | --- | --- | --- | --- | --- | --- | --- | --- | --- | --- | --- | --- | --- | --- | --- | --- | --- | --- | --- | --- |
| Cc1ccc(F)c(S(=O)(=O)Nc2ccc(-c3nc(OC[C@H]4CN(CCCCCCOCCOCCOCC(=O)N[C@H](C(=O)N5C[C@H](O)C[C@H]5C(=O)NCc5ccc(-c6scnc6C)cc5)C(C)(C)C)CCO4)c4cn[nH]c4n3)cc2)c1 [SGK3-PROTAC1] | 102% | 106% | 99% | 103% | 86% | 81% | 108% | 120% | 19% | 34% | 79% | 108% | 64% | 107% |  |  |  |  |  |  |  |
| COc1ccc(Cl)c(S(=O)(=O)Nc2ccc(-c3nc(OC[C@H]4CNCCO4)c4c(C)n[nH]c4n3)cc2)c1 [290-R, reference compound] |  |  |  |  |  |  |  |  |  |  |  |  |  |  | 100% | 95% | 90% | 96% | 87% | 91% | remaining activity at 1 µM [7]: 85%; remaining activity at 1 µM [8]: 24%; remaining activity at 1 µM [9]: 1%; remaining activity at 1 µM [10]: 2%; remaining activity at 1 µM [11]: 102%; remaining activity at 1 µM [12]: 101%; remaining activity at 1 µM [13]: 17%; remaining activity at 1 µM [14]: 99% |
| Cc1ccc(F)c(S(=O)(=O)Nc2ccc(-c3nc(OC[C@H]4CN(CCCCCCOCCOCCOCC(=O)N[C@H](C(=O)N5C[C@@H](O)C[C@H]5C(=O)NCc5ccc(-c6scnc6C)cc5)C(C)(C)C)CCO4)c4cn[nH]c4n3)cc2)c1 [cisSGK3-PROTAC1] | 97% | 89% | 96% | 90% | 92% | 113% | 111% | 109% | 20% | 51% | 117% | 107% | 81% | 112% |  |  |  |  |  |  |  |
| Cc1ccc(F)c(S(=O)(=O)Nc2ccc(-c3nc(OC[C@H]4CNCCO4)c4cn[nH]c4n3)cc2)c1 [308-R, reference compound] |  |  |  |  |  |  |  |  |  |  |  |  |  |  | 74% | 53% | 80% | 106% | 83% | 102% | remaining activity at 1 µM [7]: 106%; remaining activity at 1 µM [8]: 24%; remaining activity at 1 µM [9]: 1%; remaining activity at 1 µM [10]: 10%; remaining activity at 1 µM [11]: 69%; remaining activity at 1 µM [12]: 74%; remaining activity at 1 µM [13]: 51%; remaining activity at 1 µM [14]: 116% |
